system: not given; assay: not given; details: not given

Row | Structure (SMILES) | melting point [°C]
1 | Cc1sc2nc3c(c(N)c2c1C)CCC3 [BN-1, 2,3-dimethyl-6,7-dihydro-5H-cyclopenta[b]thieno[3,2-e]pyridin-4-amine] | 231
2 | Cc1sc2nc3c(c(N)c2c1C)CCCC3 [BN-2, 2,3-dimethyl-5,6,7,8-tetrahydrothieno[2,3-b]quinolin-4-amine] | 210

system: crude intestinal α-glucosidase; assay: In-vitro mammalian (rat intestinal) α-glucosidase inhibition assay; assay type: biochemical; details: not given
From the text: (§1) Chemicals: α-Glucosidase [(EC 3.2.1.20) Type I: from bakers yeast], rat intestinal acetone powder (as a source of crude intestinal α-glucosidase), α-amylase [EC 3.2.1.1) Type VI B: from porcine pancreas], p-nitrophenyl α-D-glucopyranoside, 3,5-dinitro salicylic acid, soluble potato starch and 1-deoxyrojirimycine, were purchased from Sigma Chemical Co., St Louis, Mo., USA. Other chemicals of analytical grade were procured from indigenous manufacturers.
(§2) In-vitro a-Glucosidase Inhibition Assay: Yeast and intestinal a-glucosidase inhibitory activities were determined as per reported methods (Babu et al., 2004; Mc Dougall et al., 2005). Rat intestinal acetone powder in normal saline (100% w/v) was sonicated properly and the supernatant was used as a source of crude intestinal a-glucosidase after centrifugation. In brief, 20 μl, of test samples (100 mg/ml DMSO solution) were reconstituted in 100 μl of 100 mM-Phosphate buffer (pH 6.8) in a 96-well microplate and incubated with 50 μl yeast a-glucosidase (0.76 μ/ml in same buffer) or crude intestinal a-glucosidase for 5 min before 50-μl substrate (5 mM, […] prepared in same buffer) was added. Release of p-nitrophenyol was measured at 405 nm spectrophotometrically (Spectra Mas Plus 384, Molecular Device corporation, Sunnyvale, Calif., USA) 5 min after incubation with substrate, individual blank for test samples were prepared to correct background absorbance where the substrate was replaced with 50 μl of buffer. The control sample contained 20 μl DMSO in place of test samples. The percentage of enzyme inhibition was calculated as (A−B/A)×100 where A is represents the absorbance of the control without test samples, and B represents the absorbance in the presence of test samples. […] The IC50 values were calculated by applying logarithmic regression analysis from the mean inhibitory values.

Row | Structure (SMILES) | Mammalian α-glucosidase inhibitory activity (in words)
3 | Cc1sc2nc3c(c(N)c2c1C)CCCC3 [BN-2, 2,3-dimethyl-5,6,7,8-tetrahydrothieno[2,3-b]quinolin-4-amine] | moderate inhibitory activity

same assay, conditions: highest concentration 5 mg/ml

Row | Structure (SMILES) | Mammalian α Glucosidase Inhibition (Mean ± S.E) [%]
4 | Cc1sc2nc3c(c(N)c2c1C)CCC3 [BN-1, 2,3-dimethyl-6,7-dihydro-5H-cyclopenta[b]thieno[3,2-e]pyridin-4-amine] | 0.0 ± 0.0
5 | Cc1sc2nc3c(c(N)c2c1C)CCCC3 [BN-2, 2,3-dimethyl-5,6,7,8-tetrahydrothieno[2,3-b]quinolin-4-amine] | 40.0 ± 2.5

biological target: T1, yeast α-glucosidase (Saccharomyces cerevisiae, UniProt P53341); assay: In-vitro yeast α-glucosidase inhibition assay; assay type: biochemical, bakers yeast; details: not given
T1 construct: α-Glucosidase [(EC 3.2.1.20) Type I: from bakers yeast]
From the text: as §1, §2

T1 sequence (P53341 whole entry): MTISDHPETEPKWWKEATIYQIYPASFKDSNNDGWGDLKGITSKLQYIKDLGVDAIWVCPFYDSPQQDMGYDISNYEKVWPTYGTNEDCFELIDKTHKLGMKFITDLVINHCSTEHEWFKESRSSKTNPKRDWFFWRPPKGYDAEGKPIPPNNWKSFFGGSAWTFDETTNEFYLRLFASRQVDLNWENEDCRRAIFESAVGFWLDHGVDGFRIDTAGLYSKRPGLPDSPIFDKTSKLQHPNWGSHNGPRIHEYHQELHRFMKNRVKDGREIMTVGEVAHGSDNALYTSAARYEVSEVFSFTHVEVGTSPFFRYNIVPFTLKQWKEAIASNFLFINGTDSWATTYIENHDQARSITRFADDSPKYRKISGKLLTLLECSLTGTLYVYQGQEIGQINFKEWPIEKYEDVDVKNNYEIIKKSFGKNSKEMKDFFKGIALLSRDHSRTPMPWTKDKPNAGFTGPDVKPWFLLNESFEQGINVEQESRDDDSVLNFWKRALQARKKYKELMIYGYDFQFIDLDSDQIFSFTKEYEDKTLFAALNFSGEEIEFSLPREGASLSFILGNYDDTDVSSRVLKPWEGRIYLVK

Row | Structure (SMILES) | Yeast α-glucosidase enzyme inhibitory activity (in words)
6 | Cc1sc2nc3c(c(N)c2c1C)CCCC3 [BN-2, 2,3-dimethyl-5,6,7,8-tetrahydrothieno[2,3-b]quinolin-4-amine] | strong significant inhibitory activity

same assay, conditions: yeast α-glucosidase, 0.039063 mg/ml; read-out: % Inhibition (Mean ± S.E)

Row | Structure (SMILES) | inhibition at 39.063 µg/mL [%]
7 | Cc1sc2nc3c(c(N)c2c1C)CCCC3 [BN-2, 2,3-dimethyl-5,6,7,8-tetrahydrothieno[2,3-b]quinolin-4-amine] | 15.3 ± 2.69

same assay, conditions: yeast α-glucosidase, 0.078125 mg/ml; read-out: % Inhibition (Mean ± S.E)

Row | Structure (SMILES) | inhibition at 78.125 µg/mL [%]
8 | Cc1sc2nc3c(c(N)c2c1C)CCCC3 [BN-2, 2,3-dimethyl-5,6,7,8-tetrahydrothieno[2,3-b]quinolin-4-amine] | 20.1 ± 1.37

same assay, conditions: yeast α-glucosidase, 0.15625 mg/ml; read-out: % Inhibition (Mean ± S.E)

Row | Structure (SMILES) | inhibition at 156.25 µg/mL [%]
9 | Cc1sc2nc3c(c(N)c2c1C)CCCC3 [BN-2, 2,3-dimethyl-5,6,7,8-tetrahydrothieno[2,3-b]quinolin-4-amine] | 25.9 ± 0.44

same assay, conditions: yeast α-glucosidase, 0.3125 mg/ml; read-out: % Inhibition (Mean ± S.E)

Row | Structure (SMILES) | inhibition at 312.5 µg/mL [%]
10 | Cc1sc2nc3c(c(N)c2c1C)CCCC3 [BN-2, 2,3-dimethyl-5,6,7,8-tetrahydrothieno[2,3-b]quinolin-4-amine] | 33.4 ± 0.76

same assay, conditions: yeast α-glucosidase, 0.625 mg/ml; read-out: % Inhibition (Mean ± S.E)

Row | Structure (SMILES) | inhibition at 625 µg/mL [%]
11 | Cc1sc2nc3c(c(N)c2c1C)CCCC3 [BN-2, 2,3-dimethyl-5,6,7,8-tetrahydrothieno[2,3-b]quinolin-4-amine] | 39.2 ± 0.87

same assay, conditions: yeast α-glucosidase, 1.25 mg/ml; read-out: % Inhibition (Mean ± S.E)

Row | Structure (SMILES) | inhibition at 1250 µg/mL [%]
12 | Cc1sc2nc3c(c(N)c2c1C)CCCC3 [BN-2, 2,3-dimethyl-5,6,7,8-tetrahydrothieno[2,3-b]quinolin-4-amine] | 43.9 ± 1.92

same assay, conditions: yeast α-glucosidase, 2.5 mg/ml; read-out: % Inhibition (Mean ± S.E)

Row | Structure (SMILES) | inhibition at 2500 µg/mL [%]
13 | Cc1sc2nc3c(c(N)c2c1C)CCCC3 [BN-2, 2,3-dimethyl-5,6,7,8-tetrahydrothieno[2,3-b]quinolin-4-amine] | 53 ± 1.13

same assay, conditions: yeast α-glucosidase, 5 mg/ml; read-out: % Inhibition (Mean ± S.E)

Row | Structure (SMILES) | inhibition at 5000 µg/mL [%]
14 | Cc1sc2nc3c(c(N)c2c1C)CCCC3 [BN-2, 2,3-dimethyl-5,6,7,8-tetrahydrothieno[2,3-b]quinolin-4-amine] | 56.54 ± 0.28

system: mice; assay: Adenosine mediated bronchoconstriction and lung inflammation in an allergic mouse model; assay type: in vivo; parameters: Total count: unit not given here; details: BAL fluid cells; 100 mg/kg oral
Experimental: Thienopyridines were proven as potent cytotoxic and anti-inflammatory agents in the previous experimental results. In cytotoxic MTT assay, activity of these molecules may be due to the involvement of adenosine receptors. Further, to find the bronchodilatory activity of these moieties and to find the involvement of adenosine receptors in their action, non-invasive and invasive adenosine mediated bronchoconstriction and lung inflammation in an allergic mouse model was performed.
Male mice, 6-8 weeks of age, free of specific pathogens were obtained from National Institute of Nutrition. The animals were maintained on a ragweed-free diet. All experimental protocols used in this study were under a protocol approved by animal ethical committee. Sensitization was performed according to the modified procedure described by Fan et al, 2002. Mice were sensitized on days 1 and 6 with i.p. injections of ragweed allergen (200 μg/200 μl of water for injection). Non-sensitized control animals received only water for injection with the same volumes. Ten days after sensitization, the mice were placed in plexiglas chamber and challenged with 0.5% ragweed or with 0.9% saline as a control for twenty minutes both in the morning and evening for three days. Then mice were divided into different groups consisting of six animals each. The groups including a control without sensitization; a sensitized group and a standard group along with groups of the test molecules were separated. Twenty-four hours after last challenge with ragweed, the mice were given an oral dose of test molecules and theophylline (100 mg/kg body weight) as acacia suspension. Two hours after administration of the oral dose, the mice were challenged with adenosine solution (24 mg/ml). The variation in respiration was recorded after anaesthetizing them with pentobarbitone sodium (0.1 ml 200 mg/ml ip) using kymograph. Then, mice were sacrificed and trachea was cannulated to collect the bronchoalveolar lavage fluid. This was performed by pumping 1 ml phosphate buffered saline into lungs through tracheal cannula and collecting the sample. Analysis of BAL fluid was performed to get the cellular differentials. The BAL fluid was centrifugated at 1500 rpm for six minutes at room temparature. After removing the supernatant, BAL cells were resuspended in 1 ml of phosphate buffered saline. Total cells were then counted manually in a hemocytometer chamber. A differential count of at least 300 cells was made according to the standard morphologic criteria and results were mentioned in table.

Row | Structure (SMILES) | Differential count (%) Eosinophils [%] | Differential count (%) Lymphocytes [%] | Differential count (%) Monocytes [%] | Total count
15 | Cc1sc2nc3c(c(N)c2c1C)CCC3 [BN-1, 2,3-dimethyl-6,7-dihydro-5H-cyclopenta[b]thieno[3,2-e]pyridin-4-amine] | 12 | 65 | 20 | 12

system: Wistar rats; assay: Carrageenan induced paw edema model; assay type: in vivo, rat; details: Rattus norvegicus; test compounds 100 mg/kg oral, Indomethacin 10 mg/kg oral; 3 hrs after Carrageenan; read-out: % Increase in Paw Volume
Experimental: Male Albino Wistar rats of 150-180 grams were used for the experiments.
Anti-inflammatory activity of test compounds was evaluated in Wistar rats employing the method of Winter et al (1963) and Diwan et al (1989). Male Wistar rats were used for the study. […] The different test compounds were administered to the animals in the test group at the dose of 100 mg/kg, by oral route. Animals in the standard group received Indomethacin at the dose of 10 mg/kg, by oral route. All test and standard compounds were administered as 1% gum acacia suspension. Rats in the control group received the vehicle solution without drugs. One hour after test drugs administration, rats in all the groups were challenged with 0.1 ml of 1% Carrageenan in the sub plantar region of right hind paw. A zero hour paw volume was measured for all the rats using digital plethysmometer (Ugo Basile, Italy) before the administration of carrageenan for all groups. Paw volumes were again measured 3 hrs after the challenge of Carrageenan. The percent inhibition of paw volume for each rat in treated groups was calculated by comparing with mean paw volume of control group and expressed as mean (±SE) percent inhibition of paw volume for each test. In a preliminary study the compounds that have shown good activity were evaluated for dose response study by using above procedure.

Row | Structure (SMILES) | change in vivo at 100 mg/kg [%]
16 | Cc1sc2nc3c(c(N)c2c1C)CCC3 [BN-1, 2,3-dimethyl-6,7-dihydro-5H-cyclopenta[b]thieno[3,2-e]pyridin-4-amine] | 87.9 ± 2.78
17 | Cc1sc2nc3c(c(N)c2c1C)CCCC3 [BN-2, 2,3-dimethyl-5,6,7,8-tetrahydrothieno[2,3-b]quinolin-4-amine] | 83.1 ± 2.66

same assay, conditions: Rattus norvegicus; test compounds 100 mg/kg oral, Indomethacin 10 mg/kg oral; 3 hrs after Carrageenan; read-out: % Inhibition (paw volume)

Row | Structure (SMILES) | inhibition in vivo at 100 mg/kg [%]
18 | Cc1sc2nc3c(c(N)c2c1C)CCC3 [BN-1, 2,3-dimethyl-6,7-dihydro-5H-cyclopenta[b]thieno[3,2-e]pyridin-4-amine] | 24.7 ± 5.49
19 | Cc1sc2nc3c(c(N)c2c1C)CCCC3 [BN-2, 2,3-dimethyl-5,6,7,8-tetrahydrothieno[2,3-b]quinolin-4-amine] | 20.6 ± 2.05

Reference: US20110269790A1, “NOVEL THIENOPYRIDINES AS PHARMACOLOGICALLY ACTIVE AGENTS” (priority 2009, published 2011)
